# What was measured:
# [1] = molecular target: T1, 5-hydroxytryptamine receptor 2A (Homo sapiens, UniProt P28223); assay: Receptor Selection and Amplification Technology
# [2] = molecular target: T1, 5-hydroxytryptamine receptor 2A; assay: Radioligand Binding Assay; conditions: 4 °C
# Method: (§1) For the membrane binding, NIH-3T3 cells were grown to 70% confluence in 15-cm2 dishes and transfected with 10 ug of receptor plasmid DNA using Polyfect transfection reagent (QIAGEN, Valencia, CA) according to manufacturer s protocols. Two days after transfection, cells expressing the desired serotonin receptor were homogenized in 20 mM HEPES/10 mM EDTA and spun down at 11,000g at 4 C for 30 min. The supernatant was discarded, and the pellet was resuspended in 20 mM HEPES/1 mM EDTA and spun down at the same setting. The pellet was then resuspended in 20 mM HEPES/0.5 mM EDTA, and membranes were used for binding assays. Bradford analysis was used to determine total membrane protein.
# [3] = molecular target: T2, 5-hydroxytryptamine receptor 2C (Homo sapiens, UniProt P28335); assay: Radioligand Binding Assay; conditions: 4 °C
# T2 sequence (P28335 whole entry): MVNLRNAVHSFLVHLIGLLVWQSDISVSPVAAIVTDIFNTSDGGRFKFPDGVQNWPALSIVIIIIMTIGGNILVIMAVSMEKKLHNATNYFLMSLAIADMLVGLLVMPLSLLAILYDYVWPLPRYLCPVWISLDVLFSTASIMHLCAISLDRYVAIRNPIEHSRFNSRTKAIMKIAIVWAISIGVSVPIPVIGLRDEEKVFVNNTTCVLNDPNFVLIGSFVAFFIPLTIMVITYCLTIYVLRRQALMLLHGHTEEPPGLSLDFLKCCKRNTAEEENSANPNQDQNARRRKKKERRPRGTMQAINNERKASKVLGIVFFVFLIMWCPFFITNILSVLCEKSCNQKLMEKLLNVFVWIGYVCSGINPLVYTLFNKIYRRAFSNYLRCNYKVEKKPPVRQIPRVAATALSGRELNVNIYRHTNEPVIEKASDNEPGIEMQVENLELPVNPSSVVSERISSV
# Method: as §1
# [4] = molecular target: T2, 5-hydroxytryptamine receptor 2C; assay: Receptor Selection and Amplification Technology
# [5] = molecular target: 5-hydroxytryptamine receptor 2B (Homo sapiens, UniProt P41595); assay: Receptor Selection and Amplification Technology
# 5-hydroxytryptamine receptor 2B, sequence (P41595 whole entry): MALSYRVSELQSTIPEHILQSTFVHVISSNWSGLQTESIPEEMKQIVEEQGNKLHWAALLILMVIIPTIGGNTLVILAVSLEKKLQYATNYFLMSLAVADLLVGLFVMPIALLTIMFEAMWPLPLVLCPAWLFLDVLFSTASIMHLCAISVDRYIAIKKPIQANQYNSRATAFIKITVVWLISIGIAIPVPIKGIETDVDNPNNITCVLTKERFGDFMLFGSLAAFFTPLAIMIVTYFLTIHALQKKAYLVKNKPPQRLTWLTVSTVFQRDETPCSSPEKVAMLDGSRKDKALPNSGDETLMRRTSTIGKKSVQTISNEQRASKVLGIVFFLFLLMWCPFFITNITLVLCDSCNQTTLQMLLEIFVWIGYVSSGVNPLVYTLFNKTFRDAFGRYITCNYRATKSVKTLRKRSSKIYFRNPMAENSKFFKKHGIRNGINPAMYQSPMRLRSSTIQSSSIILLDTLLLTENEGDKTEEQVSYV
# T1 sequence (P28223 whole entry): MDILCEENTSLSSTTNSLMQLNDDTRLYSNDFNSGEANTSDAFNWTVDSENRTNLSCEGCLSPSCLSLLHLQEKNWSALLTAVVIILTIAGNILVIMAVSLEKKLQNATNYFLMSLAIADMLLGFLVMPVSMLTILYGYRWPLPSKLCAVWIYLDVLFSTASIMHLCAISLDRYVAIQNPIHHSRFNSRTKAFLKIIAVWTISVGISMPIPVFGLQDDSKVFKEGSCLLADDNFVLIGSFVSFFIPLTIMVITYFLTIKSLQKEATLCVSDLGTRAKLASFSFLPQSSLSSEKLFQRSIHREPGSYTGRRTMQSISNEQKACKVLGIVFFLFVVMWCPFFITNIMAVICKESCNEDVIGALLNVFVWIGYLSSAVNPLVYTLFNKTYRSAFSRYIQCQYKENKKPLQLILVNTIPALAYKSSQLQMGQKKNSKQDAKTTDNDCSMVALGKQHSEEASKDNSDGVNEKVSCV
SMILES,IC50 [1] [nM],Ki [2] [nM],Ki [3] [nM],IC50 [4] [nM],IC50 [5] [nM]
CN(C)CCON/C(=C/C=C1C=CC(=O)C=C1)c1ccccc1F [eplivanserin],1,0.046,1.3,–,–
Cc1nc2sccn2c(=O)c1CCN1CCC(=C(c2ccc(F)cc2)c2ccc(F)cc2)CC1,–,–,0.44,4.5,3
